In PubChem BioAssay AID1963981 (Molecular Pharmacology Branch, DTP, NCI, 2024):
Blank lines part the entries; values can stand above or below the molecule they belong to.

Tested on: 354836-022-R-J1-PDC multicell spheroid viability
Experiment: Anticancer human tumor 354836-022-R-J1-PDC patient-derived head and neck squamous cell carcinoma cell line growth inhibition [PI3K]
Details: for IC50: curve of first compound; for viability, T/C: stronger effect = lower value
Procedure, shortened: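 Agents were dosed from a top concentration near clinical Cmax (otherwise 10 microM) in half-log decrements, alone or combined with PI3K inhibitors. The spheroids contain tumor cells plus endothelial (HUVEC) and MSC stroma; viability is measured.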

[1] = second compound 0.0316 µM, first compound 0.0316 µM
[2] = second compound 0.0316 µM, first compound 0.1 µM
[3] = second compound 0.1 µM, first compound 0.0316 µM
[4] = second compound 0.1 µM, first compound 0.1 µM
[5] = second compound 0.316 µM, first compound 0.0316 µM
[6] = second compound 0.316 µM, first compound 0.1 µM
[7] = second compound 1 µM, first compound 0.0316 µM
[8] = second compound 1 µM, first compound 0.1 µM
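Further: spheroids exposed to agents for seven days before the viability read.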

IC50 (second compound 0.0316 µM): > 3000 nM | IC50 (second compound 0.1 µM): > 3000 nM | IC50 (second compound 0.316 µM): > 3000 nM | IC50 (second compound 1 µM): > 3000 nM | IC50 (second compound 3.16 µM): 1100 nM | IC50 (second compound 10 µM): < 9.49 nM
Structure (SMILES): Cn1cnc2c(F)c(Nc3ccc(Br)cc3Cl)c(C(=O)NOCCO)cc21 + Cc1nc(NC(=O)N2CCCC2C(N)=O)sc1-c1ccnc(C(C)(C)C(F)(F)F)c1
viability, T/C (second compound 0.0316 µM, first compound 0.00949 µM): 85.6% | viability, T/C (second compound 0.0316 µM, first compound 0.03 µM): 82.2% | viability, T/C (second compound 0.0316 µM, first compound 0.0949 µM): 90.7% | viability, T/C (second compound 0.0316 µM, first compound 0.3 µM): 64.6% | viability, T/C (second compound 0.0316 µM, first compound 0.949 µM): 73.7% | viability, T/C (second compound 0.0316 µM, first compound 3 µM): 54.3% | viability, T/C (second compound 0.1 µM, first compound 0.00949 µM): 96.5% | viability, T/C (second compound 0.1 µM, first compound 0.03 µM): 83.1% | viability, T/C (second compound 0.1 µM, first compound 0.0949 µM): 82.9% | viability, T/C (second compound 0.1 µM, first compound 0.3 µM): 76.3% | viability, T/C (second compound 0.1 µM, first compound 0.949 µM): 70.4% | viability, T/C (second compound 0.1 µM, first compound 3 µM): 54.4% | viability, T/C (second compound 0.316 µM, first compound 0.00949 µM): 79.3% | viability, T/C (second compound 0.316 µM, first compound 0.03 µM): 86.2% | viability, T/C (second compound 0.316 µM, first compound 0.0949 µM): 80.5% | viability, T/C (second compound 0.316 µM, first compound 0.3 µM): 78.2% | viability, T/C (second compound 0.316 µM, first compound 0.949 µM): 75.6% | viability, T/C (second compound 0.316 µM, first compound 3 µM): 55.7% | viability, T/C (second compound 1 µM, first compound 0.00949 µM): 71.7% | viability, T/C (second compound 1 µM, first compound 0.03 µM): 75.2% | viability, T/C (second compound 1 µM, first compound 0.0949 µM): 78% | viability, T/C (second compound 1 µM, first compound 0.3 µM): 58.6% | viability, T/C (second compound 1 µM, first compound 0.949 µM): 63.3% | viability, T/C (second compound 1 µM, first compound 3 µM): 52% | viability, T/C (second compound 3.16 µM, first compound 0.00949 µM): 49.1% | viability, T/C (second compound 3.16 µM, first compound 0.03 µM): 58.1% | viability, T/C (second compound 3.16 µM, first compound 0.0949 µM): 55.8% | viability, T/C (second compound 3.16 µM, first compound 0.3 µM): 46% | viability, T/C (second compound 3.16 µM, first compound 0.949 µM): 54.8% | viability, T/C (second compound 3.16 µM, first compound 3 µM): 31.7% | viability, T/C (second compound 10 µM, first compound 0.00949 µM): 33% | viability, T/C (second compound 10 µM, first compound 0.03 µM): 29.7% | viability, T/C (second compound 10 µM, first compound 0.0949 µM): 30% | viability, T/C (second compound 10 µM, first compound 0.3 µM): 30.4% | viability, T/C (second compound 10 µM, first compound 0.949 µM): 25% | viability, T/C (second compound 10 µM, first compound 3 µM): 12.6%

IC50 (second compound 0.0316 µM): 15.5 nM | IC50 (second compound 0.1 µM): 21.7 nM | IC50 (second compound 0.316 µM): 16.4 nM | IC50 (second compound 1 µM): 15.5 nM | IC50 (second compound 3.16 µM): 19.3 nM | IC50 (second compound 10 µM): 16.8 nM
Structure (SMILES): CC(C)n1nc(-c2ccc3oc(N)nc3c2)c2c(N)ncnc21 + CC(Nc1ncnc2nc[nH]c12)c1cc2cccc(Cl)c2c(=O)n1-c1ccccc1
viability, T/C (second compound 0.0316 µM, first compound 0.000316 µM): 88.2% | viability, T/C (second compound 0.0316 µM, first compound 0.001 µM): 96.5% | viability, T/C (second compound 0.0316 µM, first compound 0.00316 µM): 79.9% | viability, T/C (second compound 0.0316 µM, first compound 0.01 µM): 57% | viability, T/C [1]: 35.3% | viability, T/C [2]: 5.53% | viability, T/C (second compound 0.1 µM, first compound 0.000316 µM): 97.8% | viability, T/C (second compound 0.1 µM, first compound 0.001 µM): 102% | viability, T/C (second compound 0.1 µM, first compound 0.00316 µM): 81.1% | viability, T/C (second compound 0.1 µM, first compound 0.01 µM): 86.3% | viability, T/C [3]: 32.8% | viability, T/C [4]: 4.44% | viability, T/C (second compound 0.316 µM, first compound 0.000316 µM): 92.6% | viability, T/C (second compound 0.316 µM, first compound 0.001 µM): 101% | viability, T/C (second compound 0.316 µM, first compound 0.00316 µM): 80.7% | viability, T/C (second compound 0.316 µM, first compound 0.01 µM): 61.2% | viability, T/C [5]: 34.9% | viability, T/C [6]: 6.09% | viability, T/C (second compound 1 µM, first compound 0.000316 µM): 113% | viability, T/C (second compound 1 µM, first compound 0.001 µM): 98.2% | viability, T/C (second compound 1 µM, first compound 0.00316 µM): 92.7% | viability, T/C (second compound 1 µM, first compound 0.01 µM): 59.5% | viability, T/C [7]: 31.6% | viability, T/C [8]: 5.81% | viability, T/C (second compound 3.16 µM, first compound 0.000316 µM): 105% | viability, T/C (second compound 3.16 µM, first compound 0.001 µM): 99% | viability, T/C (second compound 3.16 µM, first compound 0.00316 µM): 73.1% | viability, T/C (second compound 3.16 µM, first compound 0.01 µM): 68.1% | viability, T/C (second compound 3.16 µM, first compound 0.0316 µM): 40.9% | viability, T/C (second compound 3.16 µM, first compound 0.1 µM): 5.66% | viability, T/C (second compound 10 µM, first compound 0.000316 µM): 95.5% | viability, T/C (second compound 10 µM, first compound 0.001 µM): 101% | viability, T/C (second compound 10 µM, first compound 0.00316 µM): 89.2% | viability, T/C (second compound 10 µM, first compound 0.01 µM): 62.7% | viability, T/C (second compound 10 µM, first compound 0.0316 µM): 33.3% | viability, T/C (second compound 10 µM, first compound 0.1 µM): 6.25%

IC50 (second compound 0.00316 µM): > 10000 nM | IC50 (second compound 0.01 µM): > 10000 nM | IC50 (second compound 0.0316 µM): > 10000 nM | IC50 (second compound 0.1 µM): > 10000 nM | IC50 (second compound 0.316 µM): < 31.6 nM | IC50 (second compound 1 µM): < 31.6 nM
Structure (SMILES): C[C@@H](NC(=O)c1ncnc(N)c1Cl)c1ncc(C(=O)Nc2cc(C(F)(F)F)c(Cl)cn2)s1 + COc1c(OCCCN2CCOCC2)ccc2c3n(c(=NC(=O)c4cnc(N)nc4)nc12)CCN3
viability, T/C (second compound 0.00316 µM, first compound 0.0316 µM): 91.8% | viability, T/C (second compound 0.00316 µM, first compound 0.1 µM): 112% | viability, T/C (second compound 0.00316 µM, first compound 0.316 µM): 96.9% | viability, T/C (second compound 0.00316 µM, first compound 1 µM): 109% | viability, T/C (second compound 0.00316 µM, first compound 3.16 µM): 98.5% | viability, T/C (second compound 0.00316 µM, first compound 10 µM): 97% | viability, T/C (second compound 0.01 µM, first compound 0.0316 µM): 105% | viability, T/C (second compound 0.01 µM, first compound 0.1 µM): 101% | viability, T/C (second compound 0.01 µM, first compound 0.316 µM): 96.5% | viability, T/C (second compound 0.01 µM, first compound 1 µM): 119% | viability, T/C (second compound 0.01 µM, first compound 3.16 µM): 102% | viability, T/C (second compound 0.01 µM, first compound 10 µM): 78.1% | viability, T/C [1]: 76% | viability, T/C [2]: 81.8% | viability, T/C (second compound 0.0316 µM, first compound 0.316 µM): 86.5% | viability, T/C (second compound 0.0316 µM, first compound 1 µM): 86.9% | viability, T/C (second compound 0.0316 µM, first compound 3.16 µM): 84.2% | viability, T/C (second compound 0.0316 µM, first compound 10 µM): 71.5% | viability, T/C [3]: 58.2% | viability, T/C [4]: 43.7% | viability, T/C (second compound 0.1 µM, first compound 0.316 µM): 55.6% | viability, T/C (second compound 0.1 µM, first compound 1 µM): 55% | viability, T/C (second compound 0.1 µM, first compound 3.16 µM): 55.1% | viability, T/C (second compound 0.1 µM, first compound 10 µM): 47.9% | viability, T/C [5]: 11.2% | viability, T/C [6]: 14.4% | viability, T/C (second compound 0.316 µM, first compound 0.316 µM): 13.4% | viability, T/C (second compound 0.316 µM, first compound 1 µM): 18% | viability, T/C (second compound 0.316 µM, first compound 3.16 µM): 24.4% | viability, T/C (second compound 0.316 µM, first compound 10 µM): 9.94% | viability, T/C [7]: 2.2% | viability, T/C [8]: 1.73% | viability, T/C (second compound 1 µM, first compound 0.316 µM): 1.92% | viability, T/C (second compound 1 µM, first compound 1 µM): 1.84% | viability, T/C (second compound 1 µM, first compound 3.16 µM): 2.33% | viability, T/C (second compound 1 µM, first compound 10 µM): 1.65%
